{
  "source": "ChEMBL document CHEMBL4813952",
  "about": "“Axial Chiral Binaphthoquinone and Perylenequinones from the Stromata of Hypocrella bambusae Are SARS-CoV-2 Entry Inhibitors” (J Nat Prod, 2021)",
  "tested_on": "Vesicular stomatitis virus",
  "assay": "Antiviral activity against pseudotype VSV harbouring glycoprotein infected in human 293T/ACE2 cells assessed as inhibition of viral infection measured after 48 hrs by luciferase reporter gene assay",
  "format": "functional, organism-based",
  "note": "Calls of active or inactive are those of the source. No cut-off for these calls is given here.",
  "data": [
    {"smiles": "COC1=C(CC(C)=O)C(=O)c2c(c(O)cc(OC)c2-c2c(OC)cc(O)c3c2C(=O)C(CC(C)=O)=C(OC)C3=O)C1=O", "values": [
      {"measurement": "Activity", "result": "inactive"}
    ]},
    {"smiles": "COc1c2c3c4c(c(OC)c(=O)c5c(O)cc(OC)c(c6c(OC)cc(O)c(c1=O)c63)c54)[C@@H](C(C)=O)[C@@](C)(O)C2", "note": "[HYPOCRELLIN A]", "values": [
      {"measurement": "Activity", "result": "inactive"}
    ]},
    {"smiles": "COc1c(O)c2c(=O)cc(OC)c3c4c(OC)cc(=O)c5c(O)c(OC)c6c(c(c1C[C@](C)(O)[C@H]6C(C)=O)c23)c54", "values": [
      {"measurement": "Activity", "result": "inactive"}
    ]}
  ]
}
